{"source": "patent US8192962B2", "about": "“Processes for detecting toxic substances” (Daikin Industries, Ltd., priority 2001, dated 2012)", "system": "Stress protein genes", "assay": "DNA chip mRNA expression in yeast, stress protein genes (Table 6)", "assay_type": "cell-based, Saccharomyces cerevisiae S288C", "how_it_was_run": "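Values are treated/untreated fluorescence ratios from a whole-genome yeast DNA chip hybridized over 12 hours at 65° C with Cy3- or Cy5-labelled cDNA from poly(A) mRNA. Log-phase S288C yeast in YPD at 25° C had received a single toxic chemical for two hours, dosed to slow growth without killing.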"}
{"substance": "manganese ethylenebis(dithiocarbamate) [(8)]", "values": [{"measurement": "The level of expressed mRNA in the presence of chemical substance/The level of expressed mRNA in the absence of chemical substance", "setting": "yeast gene YIL033C", "result": 0.7}, {"measurement": "The level of expressed mRNA in the presence of chemical substance/The level of expressed mRNA in the absence of chemical substance", "setting": "yeast gene YIR037W", "result": 1.3}, {"measurement": "The level of expressed mRNA in the presence of chemical substance/The level of expressed mRNA in the absence of chemical substance", "setting": "yeast gene YIR038C", "result": 1.3}, {"measurement": "The level of expressed mRNA in the presence of chemical substance/The level of expressed mRNA in the absence of chemical substance", "setting": "yeast gene YJL128C", "result": 0.9}, {"measurement": "The level of expressed mRNA in the presence of chemical substance/The level of expressed mRNA in the absence of chemical substance", "setting": "yeast gene YJL158C", "result": 0.7}, {"measurement": "The level of expressed mRNA in the presence of chemical substance/The level of expressed mRNA in the absence of chemical substance", "setting": "yeast gene YJL159W", "result": 0.8}, {"measurement": "The level of expressed mRNA in the presence of chemical substance/The level of expressed mRNA in the absence of chemical substance", "setting": "yeast gene YJL165C", "result": 0.7}, {"measurement": "The level of expressed mRNA in the presence of chemical substance/The level of expressed mRNA in the absence of chemical substance", "setting": "yeast gene YJR045C", "result": 0.8}, {"measurement": "The level of expressed mRNA in the presence of chemical substance/The level of expressed mRNA in the absence of chemical substance", "setting": "yeast gene YJR090C", "result": 0.8}, {"measurement": "The level of expressed mRNA in the presence of chemical substance/The level of expressed mRNA in the absence of chemical substance", "setting": "yeast gene YKL161C", "result": 1.9}, {"measurement": "The level of expressed mRNA in the presence of chemical substance/The level of expressed mRNA in the absence of chemical substance", "setting": "yeast gene YKL163W", "result": 0.8}, {"measurement": "The level of expressed mRNA in the presence of chemical substance/The level of expressed mRNA in the absence of chemical substance", "setting": "yeast gene YKL164C", "result": 0.8}, {"measurement": "The level of expressed mRNA in the presence of chemical substance/The level of expressed mRNA in the absence of chemical substance", "setting": "yeast gene YKL210W", "result": 0.9}, {"measurement": "The level of expressed mRNA in the presence of chemical substance/The level of expressed mRNA in the absence of chemical substance", "setting": "yeast gene YKR053C", "result": 0.9}, {"measurement": "The level of expressed mRNA in the presence of chemical substance/The level of expressed mRNA in the absence of chemical substance", "setting": "yeast gene YLL024C", "result": 0.7}, {"measurement": "The level of expressed mRNA in the presence of chemical substance/The level of expressed mRNA in the absence of chemical substance", "setting": "yeast gene YLL026W", "result": 1.4}, {"measurement": "The level of expressed mRNA in the presence of chemical substance/The level of expressed mRNA in the absence of chemical substance", "setting": "yeast gene YLL039C", "result": 1.1}, {"measurement": "The level of expressed mRNA in the presence of chemical substance/The level of expressed mRNA in the absence of chemical substance", "setting": "yeast gene YLL060C", "result": 5.8}, {"measurement": "The level of expressed mRNA in the presence of chemical substance/The level of expressed mRNA in the absence of chemical substance", "setting": "yeast gene YLR006C", "result": 0.9}, {"measurement": "The level of expressed mRNA in the presence of chemical substance/The level of expressed mRNA in the absence of chemical substance", "setting": "yeast gene YLR109W", "result": 0.9}, {"measurement": "The level of expressed mRNA in the presence of chemical substance/The level of expressed mRNA in the absence of chemical substance", "setting": "yeast gene YLR259C", "result": 0.8}, {"measurement": "The level of expressed mRNA in the presence of chemical substance/The level of expressed mRNA in the absence of chemical substance", "setting": "yeast gene YML007W", "result": 1.9}, {"measurement": "The level of expressed mRNA in the presence of chemical substance/The level of expressed mRNA in the absence of chemical substance", "setting": "yeast gene YML070W", "result": 1.3}, {"measurement": "The level of expressed mRNA in the presence of chemical substance/The level of expressed mRNA in the absence of chemical substance", "setting": "yeast gene YMR021C", "result": 1.3}, {"measurement": "The level of expressed mRNA in the presence of chemical substance/The level of expressed mRNA in the absence of chemical substance", "setting": "yeast gene YMR173W", "result": 2.3}, {"measurement": "The level of expressed mRNA in the presence of chemical substance/The level of expressed mRNA in the absence of chemical substance", "setting": "yeast gene YMR186W", "result": 0.8}, {"measurement": "The level of expressed mRNA in the presence of chemical substance/The level of expressed mRNA in the absence of chemical substance", "setting": "yeast gene YNL064C", "result": 1.4}, {"measurement": "The level of expressed mRNA in the presence of chemical substance/The level of expressed mRNA in the absence of chemical substance", "setting": "yeast gene YNL160W", "result": 1.2}, {"measurement": "The level of expressed mRNA in the presence of chemical substance/The level of expressed mRNA in the absence of chemical substance", "setting": "yeast gene YNL241C", "result": 0.9}, {"measurement": "The level of expressed mRNA in the presence of chemical substance/The level of expressed mRNA in the absence of chemical substance", "setting": "yeast gene YNR076W", "result": 1.0}, {"measurement": "The level of expressed mRNA in the presence of chemical substance/The level of expressed mRNA in the absence of chemical substance", "setting": "yeast gene YOL064C", "result": 1.0}, {"measurement": "The level of expressed mRNA in the presence of chemical substance/The level of expressed mRNA in the absence of chemical substance", "setting": "yeast gene YOL161C", "result": 0.8}, {"measurement": "The level of expressed mRNA in the presence of chemical substance/The level of expressed mRNA in the absence of chemical substance", "setting": "yeast gene YOR008C", "result": 0.8}, {"measurement": "The level of expressed mRNA in the presence of chemical substance/The level of expressed mRNA in the absence of chemical substance", "setting": "yeast gene YOR009W", "result": 0.7}, {"measurement": "The level of expressed mRNA in the presence of chemical substance/The level of expressed mRNA in the absence of chemical substance", "setting": "yeast gene YOR010C", "result": 0.5}, {"measurement": "The level of expressed mRNA in the presence of chemical substance/The level of expressed mRNA in the absence of chemical substance", "setting": "yeast gene YOR027W", "result": 0.9}, {"measurement": "The level of expressed mRNA in the presence of chemical substance/The level of expressed mRNA in the absence of chemical substance", "setting": "yeast gene YOR208W", "result": 1.0}, {"measurement": "The level of expressed mRNA in the presence of chemical substance/The level of expressed mRNA in the absence of chemical substance", "setting": "yeast gene YPL059W", "result": 1.4}, {"measurement": "The level of expressed mRNA in the presence of chemical substance/The level of expressed mRNA in the absence of chemical substance", "setting": "yeast gene YPL106C", "result": 1.2}, {"measurement": "The level of expressed mRNA in the presence of chemical substance/The level of expressed mRNA in the absence of chemical substance", "setting": "yeast gene YPL140C", "result": 1.1}, {"measurement": "The level of expressed mRNA in the presence of chemical substance/The level of expressed mRNA in the absence of chemical substance", "setting": "yeast gene YPL194W", "result": 1.3}, {"measurement": "The level of expressed mRNA in the presence of chemical substance/The level of expressed mRNA in the absence of chemical substance", "setting": "yeast gene YPL223C", "result": 1.2}, {"measurement": "The level of expressed mRNA in the presence of chemical substance/The level of expressed mRNA in the absence of chemical substance", "setting": "yeast gene YPL240C", "result": 1.2}, {"measurement": "The level of expressed mRNA in the presence of chemical substance/The level of expressed mRNA in the absence of chemical substance", "setting": "yeast gene YPR005C", "result": 1.2}, {"measurement": "The level of expressed mRNA in the presence of chemical substance/The level of expressed mRNA in the absence of chemical substance", "setting": "yeast gene YPR026W", "result": 1.0}]}
